Laboratory results from patent publication US4845219A, “Nitrogen- and sulfur-containing lipid compounds their production and use” (Takeda Chemical Industries, Ltd., priority 1986, dated 1989).
Structures can show the parent of a compound that is named as a salt.

Experiments:
[1] = literature; cited from earlier work
tumor cells = details: compound [III], literature; cited from earlier work
MM46 cells = assay: Life-span prolongation of MM46-inoculated C3H/He mice (Test Example 2); type: in vivo; details: MM46 1×10^4 cells/mouse i.p.; for Life-Span Prolongation Ratio (T/C, %): 0.25 mg/mouse i.p. for consecutive 4 days from second day after inoculation, only mice of survival days less than 60 days, control = 100; for No. of survivors/No. of tested mice: 0.25 mg/mouse i.p. for consecutive 4 days, 60th day, control 0/5
Protocol: C3H/He mice (a group consisting of five mice) were inoculated intraperitoneally with 1×10^4 MM46 cells per mouse, and each mouse was intraperitoneally given 0.25 mg of drug for consecutive 4 days, starting from the second day after the inoculation. Shown in Table 2 are the life-span prolongation ratio ragarding the died mice in the group treated with drug against those in the control group not treated with drug (only related to mice of survival days less than 60 days) and the number of survived mice on the 60th day after the inoculation of MM46.

platelets = details: literature; cited from earlier work
Sarcoma 180 cells = assay: Life-span prolongation of Sarcoma 180-inoculated ICR mice (Test Example 1); type: in vivo; details: Sarcoma 180 1×10^5 cells/mouse i.p.; for Life-Span Prolongation Ratio (T/C, %): 0.33 mg/mouse i.p. three times (1 hour, 1 day, 2 days after inoculation), only mice of survival days less than 60 days, control = 100; for 60th day: No. of survivors/No. of tested mice: 0.33 mg/mouse i.p. three times, control 0/5
Protocol: ICR mice (a group consisting of five mice) were inoculated intraperitoneally with 1×10^5 Sarcoma 180 cells per mouse, and then given intraperitoneally 0.33 mg/mouse of the compound prepared in the present invention dissolved in physiological saline, three times in total, 1 hour, 1 day and 2 days after the inoculation. Also, the control compound [III] was given to mice under the same conditions. Shown in Table 1 are the life-span prolongation ratio against the control group not treated with drug (only related to mice of survival days less than 60 days) and the number of survived mice on the 60th day after the initiation of the test.

[2] = tested on: human myelogenic leukaemia cells HL-60; assay: Proliferation inhibiting activity against HL-60 (Test Example 3); type: cell-based; details: HL-60 cells, read-out: Inhibitory concentration against HL-60 (IC50, μg/ml)
Protocol: Proliferation inhibiting activity (IC50) of the compound of the present invention againsts human myelogenic leukaemia cells HL-60 was measured according to the method of R. Gallo et al [Blood, vol.

[3] = tested on: platelet aggregation by PAF, washed PRP; assay: PAF inhibiting activity in platelet aggregation (Test Example 4); type: cell-based; details: Oryctolagus cuniculus, PAF 3×10^-7 M, rabbit washed PRP, 37° C., relative to maximum aggregation of control PRP by PAF, read-out: Inhibiting Ratio; for inhibition at 30 µM: medicine concentration 3 × 10^-5 M; for inhibition at 3 µM: medicine concentration 3 × 10^-6 M
Protocol: Using a syringe containing 3.15% citric acid (1 part per 9 parts of blood) as a blood coagulation inhibitor, blood was taken from male rabbit. The blood was then centrifuged at 1000 rpm at room temperature for 10 minutes to obtain a platelet rich plasma (PRP). This PRP was further centrifuged at 1400 rpm for 15 minutes to obtain a platelet pellet. The pellet was suspended in Ca^++ -free Tyrode containing 0.25% gelatin to obtain washed PRP. This PRP (250 μl) was stirred at 37° C. for 2 minutes, to which was then added 25 μl of a 0.2-0.5 mM Ca^++ solution. After this mixture had been stirred for 30 seconds, a medicine to be tested was added thereto. After 2 minutes stirring, 3×10^-7 M of PAF was added to the mixture. Pellet aggregation was measured by means of a platelet aggregometer (manufactured by Rika Denki, Japan). The activity of the test samples was determined in terms of an inhibiting ratio relative to the maximum transmittance (maximum aggregation ratio) of control PRP by PAF.

| SMILES | hypotensive and other side-effect activity [1] | anti-tumor activity (tumor cells) | Life-Span Prolongation Ratio (T/C, %) (MM46 cells) [%] | No. of survivors/No. of tested mice (MM46 cells) | platelet activating / aggregating activity (platelets) | Life-Span Prolongation Ratio (T/C, %) (Sarcoma 180 cells) [%] | 60th day: No. of survivors/No. of tested mice (Sarcoma 180 cells) | IC50 [2] [µg/mL] | inhibition at 30 µM [3] [%] | inhibition at 3 µM [3] [%] |
| --- | --- | --- | --- | --- | --- | --- | --- | --- | --- | --- |
| CCCCCCCCCCCCCCCCCCOCC(COP(=O)([O-])OCC[N+](C)(C)C)OC (centres unmarked) [Compound [III], reference compound] | hypotensive activity and local stimulating activity | anti-tumor activity | 155 | 0/5 | platelet activating property | 162 | 0/5 |  |  |  |
| CCCCCCCCCCCCCCCCCCOCC(CS(=O)(=O)CCC[N+](C)(C)C)OC.CS(=O)(=O)[O-] (centres unmarked) [Example 30, 3-[(2-methoxy-3-octadecyloxypropyl)sulfonyl]propyltrimethylammonium mesylate] |  |  | 225 | 4/5 |  | 350 | 0/5 | 1.25 |  |  |
| CCCCCCCCCCCCCCCCCCOCC(CS(=O)(=O)CCCCCC[N+](C)(C)C)OC.CS(=O)(=O)[O-] (centres unmarked) [Example 31, 6-[(2-methoxy-3-octadecyloxypropyl)sulfonyl]hexyltrimethylammonium mesylate] |  |  |  |  |  | 273 | 0/5 | 5 | 100 | 100 |
| CCCCCCCCCCCCCCCCCCOCC(CCS(=O)(=O)CCC[N+](C)(C)C)OC.CS(=O)(=O)[O-] (centres unmarked) [Example 36, 3-[(3-methoxy-4-octadecyloxybutyl)sulfonyl]propyltrimethylammonium mesylate] |  |  |  |  |  | 242 | 1/5 | 2.5 |  |  |
| CCCCCCCCCCCCCCCCCCOCC(CC[S+]([O-])CCC[N+](C)(C)C)OC.CS(=O)(=O)[O-] (centres unmarked) [Example 37, 3-[(3-methoxy-4-octadecyloxybutyl)sulfinyl]propyltrimethylammonium mesylate] |  |  |  |  |  | 326 | 0/5 | 2.5 |  |  |
| CCCCCCCCCCCCCCCCCCOCC(CSCCC[N+](C)(C)C)OC.CS(=O)(=O)[O-] (centres unmarked) [Example 38, 3-[(2-methoxy-3-octadecyloxypropyl)thio]propyltrimethylammonium mesylate] |  |  |  |  |  |  |  | 5 |  |  |
| CCCCCCCCCCCCCCCCCCOCC(CS(=O)(=O)CCC[n+]1ccccc1)OC (centres unmarked) [Example 45, N[3-((2-Methoxy-3-octadecyloxypropyl)sulfony)propyl]pyridinium mesylate] |  |  |  |  |  |  |  | 1.25 | 100 | 82 |
| CCCCCCCCCCCCCCCCCCNC(=O)OCC(CS(=O)(=O)CCC[n+]1ccccc1)OC (centres unmarked) [Example 46, N-[3-((2-Methoxy-3-octadecylcarbamoyloxypropyl)sulfonyl)propyl]-pyridinium mesylate] |  |  |  |  |  |  |  |  | 100 | 100 |
| CCCCCCCCCCCCCCCCCCOCC(CCS(=O)(=O)CCC[n+]1ccccc1)OC.CS(=O)(=O)[O-] (centres unmarked) [Example 47, N-[3-((3-Methoxy-4-octadecyloxybutyl)sulfonyl)propyl]pyridinium mesylate] |  |  |  |  |  |  |  | 1.25 | 100 | 73 |
| CCCCCCCCCCCCCCCCCCOCC(CCS(=O)(=O)CCC[n+]1ccsc1)OC.CS(=O)(=O)[O-] (centres unmarked) [Example 48, N-[3-((3-Methoxy-4-octadecyloxybutyl)sulfonyl)propyl]thiazolium mesylate] |  |  |  |  |  |  |  | 2.5 | 100 | 65 |
